These results are taken from patent US10874856B2, “Device for treating a cutaneous ulcer” (priority 2013, dated 2020).

Bounds are passed on as bounds.

One data set has as its system digital ulcers. The note with it: cited from earlier work.
For data set [1], the system named is Raynaud's attacks and ulcers. The note with it: intravenous, versus placebo; cited from earlier work.
In data set [2] the test system is skin blood flow. Briefly: Continuous cathodal iontophoresis on the forearm of healthy volunteers, skin blood flow by laser Doppler imaging. The note with it: 250 μM treprostinil, cathodal iontophoresis 20 minutes. In kind it is in vivo, human.
Experimental: A clinical study then included 20 healthy volunteers. These subjects received 3 concentrations of treprostinil via continuous cathodal iontophoresis on the forearm for 20 minutes and a control iontophoresis of 0.9% NaCl. Skin blood flow was quantified by laser Doppler imaging.
This effect is expressed as cutaneous vascular conductance (CVC; percentage of the baseline) recorded up to 24 hours.
To implement iontophoresis on the forearm, several iontophoresis chambers containing treprostinil liquid solution in contact with a cathode, and an anode at a distance of about 15 cm from the cathode, are placed on the inside of the forearm of each patient. […] Treprostinil liquid solution was in direct contact with the subject's skin.
Data set [3] has as its system blood flow in the pad of the finger. Briefly: Iontophoresis of treprostinil impregnating a primary dressing on the finger pad, laser speckle contrast imaging of blood flow. In kind it is in vivo, human.
Experimental: FIG. 3 reproduces an image obtained by laser speckle contrast imaging of blood flow in the pad of the index finger treated by iontophoresis of treprostinil impregnating a primary dressing and in the pad of the middle finger of the same hand treated by iontophoresis of 0.9% NaCl impregnating another primary dressing, in a healthy subject. The iontophoresis was carried out under the following conditions: 240 mC/cm^2, direct current. Two 7.2 cm^2 Ag—AgCl electrodes (Iogel, Iomed Inc., Salt Lake City, Utah, USA) were soaked in 1.5 ml of treprostinil or NaCl solution (double-blind).
These drug-soaked electrodes were connected to the cathode, while the anode was connected to passive electrodes attached at a distance of 10 cm. Low-voltage computer-controlled generators were used (PF 751 Perilont USB Power Supply, Perimed, Järfálla, Sweden). The voltage was recorded continuously in order to estimate the skin's resistance.
FIG. 4 reproduces an image obtained by laser speckle contrast imaging of blood flow in the pad of a ring finger treated by iontophoresis of treprostinil impregnating a primary dressing and in the pad of the middle finger of the same hand treated by iontophoresis of 0.9% NaCl, in a subject with scleroderma. The variation in blood flow is represented in same manner as in FIG. 3.
Data set [4] is described as follows: Plasma treprostinil concentration in scleroderma patients post-iontophoresis. In kind it is in vivo. The following applies: human, other: cathodal iontophoresis, 250 μM, 30 minutes post-iontophoresis.
Data set [5] in a line: Treprostinil plasma assay (HPLC-MS/MS) after iontophoresis on forearm and fingers. In kind it is in vivo, human. The following applies: after iontophoresis for 20 minutes on the forearm and for 2 hours on the fingers. Here is the method:
However, the fact that the patient's skin is in extended contact with an active substance is likely to involve the systemic passage of treprostinil. The Inventors thus assayed treprostinil in the plasma using high-performance liquid chromatography coupled to tandem mass spectrometry after iontophoresis for 20 minutes on the forearm and for 2 hours on the fingers.

Data set [6] relates to skin blood flow. The following applies: rat.
Data set [7] can be described thus: Treprostinil quantification in dermal dialysate fluid (microdialysis, HPLC-MS/MS), forearm. In kind it is in vivo, human. The note with it: post-iontophoresis. An excerpt: The use of treprostinil to impregnate a primary dressing has the advantage of making it possible to cover larger areas of skin. However, it was not obvious that the results obtained by iontophoresis of treprostinil in liquid solution form in direct contact with the patient's skin could be obtained with the embodiment in accordance with the invention.

Data set [8] deals with skin blood flow. The following applies: 12 scleroderma patients, 250 μM, direct current, 240 mC/cm^2.

`COc1ccccc1Oc1c(NS(=O)(=O)c2ccc(C(C)(C)C)cc2)nc(-c2ncccn2)nc1OCCO` [bosentan]: in the data set with digital ulcers (RAPIDS-2 study), the “risk of developing new ulcers” value is reported as “significantly reduced the risk”. Also, in the data set on digital ulcers (in vivo), the “healing of preexisting ulcers” value was “no advantage”.
On to `CC#CCC(C)[C@H](O)/C=C/[C@@H]1[C@H]2C/C(=C/CCCC(=O)O)C[C@H]2C[C@H]1O` (stereo partly drawn) [iloprost], for which the “frequency of Raynaud's attacks and healing time of ulcers” value in [1] is given as “provided an advantage”.
Regarding `CCCCC[C@H](O)CC[C@@H]1[C@H]2Cc3cccc(OCC(=O)O)c3C[C@H]2C[C@H]1O` [treprostinil], the “cutaneous vascular conductance AUC80 min” value in the data set on skin blood flow [2] is 31,897±24,390 % BL·min. Further, the “vasomotor effect on finger pad, healthy subject (FIG. 3)” value in [3] (healthy subject, index finger, 240 mC/cm^2, direct current) is listed as “marked vasomotor effect”. Further, the “vasomotor effect on finger pad, subject with scleroderma (FIG. 4)” value in data set [3] (subject with scleroderma, ring finger) is reported as “marked vasomotor effect”. This compound had a concentration at 30 min in [4] of less than 1.8 pg/mL. Moreover, the “systemic passage (plasma quantification)” value in data set [5] is given as “negligible systemic passage”. Moreover, in the data set on skin blood flow [6] (20 minutes of cathodal iontophoresis at 100 μA, liquid solution in direct contact with skin), the cutaneous vasodilatation entry is “caused cutaneous vasodilatation”. For the same compound, the “persistence of effect after iontophoresis is over” value with skin blood flow [6] (cathodal iontophoresis) is given as “at least 60 minutes”. Besides, the “local toxicity, clinically and after systematic skin biopsies” value in the data set with skin blood flow [6] (in vivo) is “No sign of local toxicity”. Also, the “effect on skin blood flow absent current or with anodal current” value in the data set with skin blood flow [6] (no current or anodal current) was “no effect on skin blood flow”. In addition, the “time treprostinil present in the dermis of the forearm (average)” value in data set [7] is “up to 8 hours”. Also, in the data set with skin blood flow [8], the skin blood flow result is given as “increase in skin blood flow” and the tolerance entry is “well tolerated”.
